# Data as given in patent US8017649B2, “Flavonoid compounds and uses thereof” (Howard Florey Institute of Experimental Physiology and …, priority 2005, dated 2011).
# “Also recorded” adds a separate entry of the source.
# Tests used:
# [1] = tested on: aortic rings; experiment: Effect on SNP relaxation of precontracted rat aortic rings; type: cell-based; settings: substance alone
# Method: (§1) After wash out and re-equilibration for 30 min, the aortic rings were then submaximally precontracted with PE and U46619, which were used to produce an active tension of 45-60% of the KPSS-induced maximum contraction. When investigating the effects of the flavonoids, flavonol, flavone-3-hemiadipate (F3HA), 3′, 4′-dihydroxyflavone, 3′,4′-dihydroxyflavonol, 3′,4′-dihydroxyflavone-3-hemiadipate (DiOHF3HA), and flavone-3-phosphate (F3P) on vasorelaxant responses, rings were incubated with one of the compounds for 20 mins before they were precontracted submaximally, followed by a cumulative-concentration response curve to ACh (100 nM-10 μM) or SNP ([…]). In experiments using F3P 1000U/L phosphatase was used in some experiments to cleave the phosphate. Some experiments were conducted in the presence and absence of butyryl cholinesterase (BuCHE, 1000 U/L) to cleave the adipate in DiOHF3HA and F3HA.
# [2] = tested on: endothelium intact aortic rings; experiment: Ca2+-induced contraction of rat aortic rings in Ca2+-free high-K+ solution; type: cell-based
# Method: To determine the effect of flavonoids on responses to the influx of extracellular Ca^2+, contractile responses to exogenous application of Ca^2+ were examined in the presence of flavonoids in Ca^2+-free high-K^+ solution (60 mM, KPSS). Aortic rings were initially equilibrated at a resting tension of 1 g in normal Ca^2+-free PSS for 45 minutes. The bath medium was then replaced with Ca^2+-free KPSS for 45 minutes to determine a reference contraction to Ca^2+ (3×10^−3 M). Following a 30 minute re-equilibration period with Ca^2+-free PSS, the cumulative contractile responses to Ca^2+ (10^−5−3×10^−3 M) were determined in KPSS in the presence of a range of concentrations (10^−8-10^−4 M) of vehicle, 3′,4′-dihydroxyflavonol, 3-hydroxyflavone-3-hemiadipate, 3′,4′-dihydroxy-3-hemiadipate, 3-hydroxyflavone-3-phosphate. A 20 minute incubation period was allowed for the flavonoids before examining the responses to Ca^2+.
# To determine the effect of flavonoids on responses to the influx of extracellular Ca^2+, contractile responses to exogenous application of Ca^2+ were examined in the presence of flavonoids in Ca^2+-free high-K^+ solution (60 mM, K+-PSS). Aortic rings were initially equilibrated at a resting tension of 1 g in Ca^2+-free PSS for 45 minutes. The bath medium was then replaced with Ca^2+-free K+-PSS for 45 minutes to determine a reference contraction to added Ca^2+ (3 mM). Following a 30 minute re-equilibration period with Ca^2+-free PSS, the cumulative contractile responses to Ca^2+ (10^−5−3×10^−3 M) were determined in K^+ PSS in the presence of vehicle (0.1% DMSO), or a range of concentrations (10^−7-10^−4 M) of 3′-hydroxyflavonol, F3HA, DiOHF3HA or F3P. A 20 minute incubation period was allowed for the flavonoids before examining the responses to Ca^2+. Experiments were conducted in the presence and absence of BuCHE (1000 U/L) to cleave the adipate in F3HA and DiOHF3HA. In experiments using F3P, phosphatase (1000 U/L) was used in some experiments to cleave the phosphate.
# [3] = tested on: endothelium intact aortic rings; experiment: Effect on ACh relaxation of precontracted rat aortic rings; type: cell-based; settings: substance alone
# Method: as §1
# [4] = tested on: superoxide anions generated in rat aorta; experiment: Superoxide anion production in rat isolated aortic segments (lucigenin chemiluminescence, NADPH); type: cell-based; settings: for superoxide levels: highest concentration tested (0.1 mM)
# Method: Superoxide anion production in rat isolated aortic segments was determined using lucigenin chemiluminescence. Aortic rings were prepared as described above and then placed in ice-cold Krebs-(N-[2-Hydroxyethyl]piperazine-N′-[2-ethanesulfonic acid] (HEPES buffer) (composition (mM); NaCl 99.0, KCl 4.7, KH2PO4 1.0, MgSO4·7H2O 1.2, D-glucose 11.0, NaHCO3 25.0, CaCl2·2H2O 2.5, Na-HEPES 20.0). Aortic rings were pre-incubated for 45 minutes at 37° C. with a pH 7.4, in Krebs-HEPES buffer containing diethylthiocarbamic acid (DETCA, 10^−3 M) to inactivate superoxide dismutase and β-nicotinamide adenine dinucleotide phosphate (NADPH, 10^−4 M) as a substrate for NADPH oxidase and either 3′,4′-dihydroxyflavonol (10^−4 M) as a positive control, vehicle, 3-hydroxyflavone-3-hemiadipate, 3′,4′-dihydroxy-3-hemiadipate, 3-hydroxyflavone-3-phosphate (10^−8-10^−4 M). Background photon emission was measured for 12 cycles in a 96-well Optiplate containing 0.3 ml per well of Krebs-HEPES buffer together with lucigenin (5×10^−5 M) and vehicle or flavonoid (10^−8-10^−4 M). Each cycle was counted every one minute. After background reading was completed the incubated aortic rings were transferred to the appropriate wells and photon emission was recounted as described above. The tissue was then placed in a 65° C. oven for 48 hours to allow superoxide production to be normalised to dry tissue weight.
# The effects of vehicle, 3′,4′-dihydroxyflavone-3-hemiadipate (21) (DiOHF3HA, 10^−8 M-10^−4 M) and DiOHF (10^−4 M) in the presence and absence of Butyryl cholinesterase (BuCHE), 100, 300 and 1000 U/L) on the level of superoxide anions generated in rat isolated aortic segments in the presence of NADPH was expressed as a percentage of control. The method used was as described above except for the addition of the butyryl cholinesterase.
# The effect of vehicle, 3-hydroxyflavone-3-phosphate (10^−8 to 10^−4 M) in the presence or absence of phosphatase (1000 U/L) on the level of superoxide anions generated in rat aorta in the presence of NADPH expressed as a percentage of control was determined as described above for the 3′,4′-dihydroxyflavone-3-hemiadipate.
# [5] = tested on: rat aorta precontracted with PE; experiment: Direct relaxation of PE/U46619-precontracted rat aortic rings; type: cell-based; settings: substance alone
# Method: Following testing of endothelial integrity, rings were repeatedly washed and re-equilibrated for 30 minutes before the addition of PE (10^−8−2×10^−7 M) and 9,11-dideoxy-9α, 11α-epoxymethano-prostaglandin F2α (U46619, 10^−9-10^−8 M) to produce an active force in the range of 40-60% of KPSS-induced contraction. The level of precontraction was matched between the various groups by adjusting the concentrations of PE and U46619. Cumulative concentration-response curves in the range 10^−8-10^−4 M were conducted for 3′,4′-dihydroxyflavonol, 3-hydroxyflavone-3-hemiadipate, 3′,4′-dihydroxy-3-hemiadipate, 3-hydroxyflavone-3-phosphate.
# Experiments were conducted in the presence of an esterase, butyryl cholinesterase (BuCHE, 1000 U/L) for the hemiadipate derivates and a phosphatase 1000 U/L) in the case of the phosphate derivatives.
# Following testing of endothelial integrity, rings were repeatedly washed and re-equilibrated for 30 minutes before the addition of PE (10^−8−2×10^−7 M) and 9,11-dideoxy-9α, 11α-epoxymethano-prostaglandin F2α (U46619, 10^−9-10^−7 M) to produce an active force in the range of 40-60% of KPSS-induced contraction. Cumulative concentration-response curves in the range 10^−7-10^−4 M were conducted for vehicle, 3′-hydroxyflavonol, F3HA, DiOHF3HA, F3P. Experiments were conducted in the presence and absence of 1000 U/L BuCHE to cleave the adipate in F3HA and DiOHF3HA. In experiments using F3P 1000 U/L phosphatase was used in some experiments to cleave the phosphate.
# [6] = tested on: anaesthetised rats; experiment: Arterial pressure and heart rate in anaesthetised rats after intravenous injection; type: in vivo, rat; settings: intravenous, anaesthetised rats
# Method: A unit dosage of an aqueous solution of 3-hydroxyflavone-3-hemiadipate (15) was administered to a group of male anesthetized Sprague Dawley rats intravenously and the blood pressure monitored over a period of time.
# Male Sprague-Dawley rats (250-350 g) were anaesthetised with pentobarbitone sodium (60 mg kg^−1, ip). The trachea was isolated and cannulated with polyethylene tracheal tube (I.D. 2.0 mm), and the rat was allowed to breathe spontaneously.
# The right carotid artery was cannulated and connected with a heparinised saline filled cannula (O.D. 0.75, I.D, 0.58 mm) and connected to a pressure transducer. Mean and phasic arterial pressure were continuously measured and recorded on a polygraph. The heart rate, was derived from the phasic arterial pressure using a tachometer.
# DiOHF3HA ([…]) was injected intravenously, allowing at least 30 min between injections, and the peak changes in mean arterial pressure and heart rate measured. […] In a separate group of experiments ACh (0.3 mg/kg iv) and phenylephrine (PE, […]) were injected before and 30 minutes after DiOHF3HA (3 mg/kg iv), a time when arterial pressure and heart rate had returned to control levels. […]
# [7] = substance alone, no added esterase/phosphatase, up to 10^−4 M, NADPH
molecule,measurement,setting,value
"O=c1c(O)c(-c2ccccc2)oc2ccccc12 [Flavonol, reference compound]",effect on relaxant response to SNP,[1],did not affect
same,effect on Ca^2+-induced contraction,"[2]; alone, over the concentration range tested",concentration dependent decreases in calcium-induced contraction
same,effect on relaxant response to ACh,[3],did not affect
same,superoxide levels,[4],36±3 % of control
same,effect on superoxide generation,[4]; [7],concentration dependent decreases in superoxide levels
"O=c1cc(-c2ccc(O)c(O)c2)oc2ccccc12 [DiOHFne, 3′,4′-dihydroxyflavone, reference compound]",direct relaxing effect on precontracted vessels,[5],concentration-dependent relaxation of rat aorta which was weaker than the effect of DiOHF
same,superoxide levels,[4],36±3 % of control
same,effect on superoxide generation,[4]; [7],concentration dependent decreases in superoxide levels
"O=C(O)CCCCC(=O)Oc1c(-c2ccccc2)oc2ccccc2c1=O [F3HA, Flavone-3-hemiadipate]",effect on Ca^2+-induced contraction,"[2]; alone, highest concentration 10^−4 M",only inhibited contractile responses to increasing concentrations of extracellular calcium at the highest concentration tested
same,effect on Ca^2+-induced contraction,"[2]; alone, highest concentration 10^−4 M, listed as flavone-3-hemiadipate",some inhibitory effect
same,effect on Ca^2+-induced contraction,"[2]; alone, lower concentrations 10^−8 to 10^−5 M",did not effect Ca^2+ contraction
same,effect on Ca^2+-induced contraction,[2]; in the presence of BuCHE or phosphatase (1000 U/L),inhibit calcium-induced contraction
same,change in mean arterial pressure (MAP),[6],significant reduction in the blood pressure
same,effect on superoxide generation,"[4]; in the presence of cleaving enzyme (BuCHE for hemiadipates, phosphatase for phosphate, 1000 U/L)",concentration dependent increase in the inhibitory effect
same,effect on superoxide generation,"[4]; in the presence of cleaving enzyme (BuCHE for hemiadipates, phosphatase for phosphate, 1000 U/L), listed as flavone-3-hemiadipate",concentration-dependent inhibitory effect
same,effect on superoxide generation,[4]; [7],no inhibitory effect on superoxide generation; also recorded: no antioxidant or vascular activity
same,effect on superoxide generation,"[4]; substance alone, no added esterase/phosphatase, up to 10^−4 M, NADPH, listed as Flavone-3-hemiadipate",no effect on the superoxide production
same,effect on superoxide generation,"[4]; substance alone, no added esterase/phosphatase, up to 10^−4 M, NADPH, listed as flavone-3-hemiadipate",no effect on the superoxide production at any concentration
"BuCHE: butyryl cholinesterase, esterase used to cleave the adipate (protein, UniProt P06276 29-602, looked up) Cholinesterase: EDDIIIATKNGKVRGMNLTVFGGTVTAFLGIPYAQPPLGRLRFKKPQSLTKWSDIWNATKYANSCCQNIDQSFPGFHGSEMWNPNTDLSEDCLYLNVWIPAPKPKNATVLIWIYGGGFQTGTSSLHVYDGKFLARVERVIVVSMNYRVGALGFLALPGNPEAPGNMGLFDQQLALQWVQKNIAAFGGNPKSVTLFGESAGAASVSLHLLSPGSHSLFTRAILQSGSFNAPWAVTSLYEARNRTLNLAKLTGCSRENETEIIKCLRNKDPQEILLNEAFVVPYGTPLSVNFGPTVDGDFLTDMPDILLELGQFKKTQILVGVNKDEGTAFLVYGAPGFSKDNNSIITRKEFQEGLKIFFPGVSEFGKESILFHYTDWVDDQRPENYREALGDVVGDYNFICPALEFTKKFSEWGNNAFFYYFEHRSSKLPWPEWMGVMHGYEIEFVFGLPLERRDNYTKAEEILSRSIVKRWANFAKYGNPNETQNNSTSWPVFKSTEQKYLTLNTESTRIMTKLRAQQCRFWTSFFPKVLEMTGNIDEAEWEWKAGFHRWNNYMMDWKNQFNDYTSKKESCVGL",direct relaxing effect on precontracted vessels,[5],no effect on PE precontracted vessels
